The results in this text go back to patent US20220132839A1, “MOSQUITO ATTRACTANT COMPOSITIONS” (UNIVERSITY OF WASHINGTON, priority 2019, published 2022).

“Also recorded” adds a separate entry of the source.

In assay [1] the test system is Aedes mosquitoes. The experiment in a line: GC-EAD antennal responses, Aedes mosquitoes from the field. The source says: Electroantennogram signals were filtered and amplified (100×; 0.1-500 Hz) using an A-M 1800 amplifier (Sequim, Wash., USA) connected to a personal computer via a BNC-2090A analog-to-digital board (National Instruments, Austin, Tex., USA) and digitized at 20 Hz using WinEDR software (Strathclyde Electrophysiology Software, Glasgow, UK). A Hum Bug noise eliminator (Quest Scientific, Vancouver, Canada) was used to decrease electrical noise. The antennal responses to peaks eluting from the GC were measured for each mosquito preparation, and each peak and mosquito species. Bioactive peaks were those that elicited strong EAD responses, corresponding to deflections beyond the average noise floor of the baseline EAD signal. Responses by each individual preparation were used for Principal Component Analysis (Ade4 package, R). The responses of eight different mosquito species were tested to the scent extracts of three orchid species (n=8 mosquito species for P. obtusata; n=4 mosquito species each for P. stricta and P. huronensis; with 3-17 replicates per mosquito species per orchid, for a total of 109 GC-EAD experiments).
Individual mosquitoes were isolated in Falcon™ tubes (Thermo Fisher Scientific, Pittsburgh, Pa., USA) covered with a piece of fine mesh. They were maintained in a climatic chamber, as previously described, and identified immediately before running the experiment. Carbon dioxide delivered through a pad (Genesee Scientific, San Diego, Calif., USA) was used to briefly anesthetize mosquitoes before transferring them on ice for the dissection. The head was excised and the tip (i.e., one segment) of each antenna was cut off with fine scissors under a binocular microscope (Carl Zeiss, Oberkochen, Germany). The head was then mounted on an electrode composed of a silver wire 0.01″ (A-M Systems, Carlsbord, Wash., USA) and a borosilicate pulled capillary (Sutter Instrument Company, Novato, Calif., USA) filled with a 1:3 mix of saline (L. B. Thien, F. Utech, The mode of pollination in Habenaria obtusata (Orchidaceae). American Journal of Botany 57, 1031-1035 (1970) and electrode gel (Parker Laboratories, Fairfield, N.J., USA) in order to avoid the preparation to desiccate during the experiment. The head was mounted by the neck on the reference electrode. The preparation was then moved to the GC-EAD with the tips of the antennae inserted under the microscope (Optiphot-2, Nikon, Tokyo, Japan) into a recording electrode, that was identical to the reference electrode. The mounted antennae were oriented at 90° from the main airline which was carrying filtered air (Praxair, Danbury, Conn., USA) and volatiles eluting from the Gas-Chromatograph to the preparation via a 200° C. transfer line (EC-05; Syntech GmbH, Buchenbach, Germany). Five microliters of the orchid extract were injected into the Gas Chromatograph with Flame Ionization Detection (Agilent 7820A GC, Agilent Technologies; DB5 column, J&W Scientific, Folsom, Calif., USA). The oven program was the same as the one used for the GC-MS analyses of the scent extracts. The transfer line from the GC to the preparation was set to 200° C.

The test system of assay [2] is Ae. aegypti AL glomeruli. The experiment in a line: Two-photon calcium imaging (PUb-GCaMP6s) of the antennal lobe, Ae. aegypti. The class given is in vivo. The note with it: for effect of GABA-receptor antagonists on AM2 response to the P. obtusata scent / effect of GABA-receptor antagonists on LC2 and AM2 responses to the P. stricta scent: 1 μM CGP54626, 10 μM picrotoxin focally applied together on to the AL; for glomerular responses in the AL: imaged at 40 μm depth, particularly AL3 and LC2 glomeruli for the mixture; for LC2 glomerulus response: single odorants; for AM2 response with increasing dose: different concentrations; for AM2 glomerulus response: odor stimulation. From the text:
A total of twenty preparations were used: 10 for single odorant and orchid mixture experiments; 6 for ratio experiments; and 4 for experiments using GABA-receptor antagonists. […] The expression of GCaMP occurred in glia, local interneurons, and projection neurons. […] Thus, in the calcium imaging experiments care was taken to image from the central regions of the glomeruli and avoid the sheaths and external glomerular loci. […] Relatedly, GCaMP6s expression is very high in AL local interneurons and projection neurons (PNs), such that during odor stimulation the PNs and axonal processes can often be imaged, and 3D reconstructions can be take place through simultaneous optical sections with odor stimulation. Nonetheless, the glomerular responses were assumed to be a function of multiple cell types.
Similar to experiments with Ae. increpitus, the majority the mosquitoes were UV-glued to the stage to allow free movement of their wings and proboscis; however, for experiments using GABA-receptor antagonists the proboscis was glued to the stage for additional stability. Once the mosquito was fixed to the stage, a window in its head was cut to expose the brain, and the brain was continuously superfused with physiological saline.
Thus a provisional atlas was created with female mosquitoes (n=6) that allowed for cross-reference of the imaged glomeruli and comparison of their positions and structures to those described in the atlas. This was accomplished via clear glomerular boundaries, especially during odor stimulation, and the distinct odorant tuning of glomeruli throughout the depths of the AL (e.g., AM2 responsive to DEET; LC2 and AL3 responsive to nonanal; PD3 responsive to geosmin; and MD2 responsive to CO2) that allowed 3D registration across preparations and subsequent warping and referencing with the atlas.
Saline and pharmacological agents. The saline was made based on the Beyenbach and Masia recipe (L. B. Thien, F. Utech, The mode of pollination in Habenaria obtusata (Orchidaceae). American Journal of Botany 57, 1031-1035 (1970)) and contained 150.0 mM NaCl, 25.0 mM N-2-hydroxyethyl-piperazine-N′-2-ethanesulfonic acid (HEPES), 5.0 mM sucrose, 3.4 mM KCl, 1.8 mM NaHCO3, 1.7 mM CaCl2, and 1.0 mM MgCl2. The pH was adjusted to 7 with 1 M NaOH. […] […] A drip system comprising two 100 mL reservoirs—one containing the GABA receptor antagonists, and the other saline—converged on the two-channel temperature controller to facilitate rapid switching from normal physiological saline solution to the antagonists and back. Antagonists were superfused directly into the holder near to the opening of the head capsule and recorded neuropil. The odor-evoked responses were first recorded under normal physiological saline solution and then repeated under GABA receptor antagonists diluted in normal saline solution, and finally the normal saline wash. All calcium imaging data were statistically analyzed using Kruskal-Wallis tests with multiple comparisons and visualized using Principal Components Analysis. Analyses were performed in Matlab (v2017; Mathworks, Natick, Mass.).
Olfactory stimuli were delivered to the mosquito by pulses of air diverted through a 2 mL cartridge containing a piece of filter paper bearing the odor stimulus (2 An air line provided gentle and constant charcoal-filtered air at 1 m/s to the antennae allowing continuous ventilation to prevent adaptation of the olfactory receptor cells. The stimulus output was positioned in the air line 2 cm from and orthogonal to the mosquito antennae. For testing different ratios of lilac aldehyde and nonanal, two syringes bearing different concentrations of the odorants were used and positioned such that the outputs were positioned in the same location in the air stream. […]

Assay [3] concerns Ae. increpitus mosquito antennal lobe (AL) glomeruli. The experiment in a line: Two-photon calcium imaging (Fluo4) of the antennal lobe, Ae. increpitus. The class given is in vivo. The note with it: single odorants. How it is done:
Odor-evoked responses in the Ae. increpitus mosquito antennal lobe (AL) with nine female mosquitoes at the beginning of the season when mosquitoes were relatively young (as defined by wing and scale appearance). Calcium imaging experiments were conducted using application of the calcium indicator Fluo4 to the mosquito brain and using a stage that allows simultaneous calcium imaging and tethered flight. The mosquito was cooled on ice and transferred to a Peltier-cooled holder that enables the mosquito to head to be fixed to the stage using ultraviolet glue. The custom stage permits the superfusion of saline to the head capsule and space for movement by the wings and proboscis. Once the mosquito was fixed to the stage, a window in its head was cut to expose the brain, and the brain was continuously superfused with physiological saline. Next, the perineural sheath was gently removed from the AL using fine forceps and 75 μL of the Fluo4 solution—made by […] of Fluo4 in 30 μL Pluronic F-127 and then subsequently diluted in 950 μL of mosquito physiological saline—was pipetted to the holder allowing the brain to be completely immersed in the dye. Mosquitoes were kept in the dark at 15° C. for 1.5 h (the appropriate time for adequate penetration of the dye into the tissue), after which the brain was washed 3 times with physiological saline. After the rinse, mosquitoes were kept in the dark at room temperature for approximately 10-20 min. before imaging.
Wing stroke amplitudes were acquired and analyzed using a custom camera-based computer vision system at frame rates of 100 Hz, where the mosquito was illuminated with infrared LEDs (880 nm) and images were collected with an infrared-sensitive camera synched to the two-photon system. Stimulus-evoked initiation of flight and changes in the amplitude of the wing-stroke envelope were characterized for each odor stimulus. Calcium-evoked responses in the AL were imaged using the Prairie Ultima IV two-photon excitation microscope (Prairie Technologies) and Ti-Sapphire laser (Chameleon Ultra; Coherent). Experiments were performed at a depth of 40 μm from the ventral surface of the AL, allowing the calcium dynamics from approximately 18-22 glomeruli to be repeatedly imaged across preparations. Images were collected at 2 Hz, and for each odor stimulus images were acquired for 35 s, starting 10 s before the stimulus onset. Imaging data were extracted in Fiji/ImageJ and imported into Matlab (v2017; Mathworks, Natick, Mass.) for Gaussian filtering (2×2 pixel; σ=1.5-3) and alignment using a single frame as the reference at a given imaging depth and subsequently registered to every frame to within ¼ pixel. Trigger-averaged ΔF/F was used for comparing glomerular responses between odor stimuli. […]

Where [4] appears, read: scents of P. stricta and P. huronensis, Ae. increpitus, Ae. communis, Ae. canadensis and Culiseta sp.
Setting [5] is: lilac aldehyde and nonanal at different concentration ratios.
[6] abbreviates: odorant tuning used for glomerular registration.

As for `O=Cc1ccccc1` [benzaldehyde], the “antennal responses (GC-EAD)” value in assay [1] (setting [4]) is “all responded”.
In the case of `C[C@H](NC[C@H](O)CP(=O)(O)CC1CCCCC1)c1ccc(Cl)c(Cl)c1` [CGP54626, reference compound], in assay [2], the “effect of GABA-receptor antagonists on AM2 response to the P. obtusata scent” value is given as “the effect of nonanal was blocked”; the “effect of GABA-receptor antagonists on LC2 and AM2 responses to the P. stricta scent” value was “blocked the symmetrical inhibition by nonanal and lilac aldehyde”.
Consider `CCCCCCCC=O` [octanal], for which the “antennal responses (GC-EAD)” value in assay [1] (peaks of the P. obtusata scent) was “evoked antennal responses”. Moreover, in assay [3], the LC2 glomerulus response result was “strongest response”. In assay [2], the “glomerular responses in the AL” value is “strong responses” and the LC2 glomerulus response entry is listed as “strongest response”.
With `C=CC1(C)CCC(C(C)C=O)O1` (stereo not drawn) [lilac aldehyde, 5-dimethyl-5-ethenyl-2-tetrahydrofuranacetaldehydes], in assay [1] (high concentration in the scent of P. stricta, lesser in P. huronensis, antennae of Ae. increpitus and Ae. communis), the “antennal responses (GC-EAD)” value was “relatively strong responses”. The “antennal responses (GC-EAD)” value in assay [1] (peaks of the P. obtusata scent) is given as “evoked antennal responses”. In addition, the “antennal responses (GC-EAD)” value in assay [1] (setting [4]) was “all responded”. For the same compound, in assay [2], the “AM2 response with increasing dose” value is recorded as “significant increases in response with increasing dose”, the “glomerular responses in the AL” value is reported as “strong responses” and the AM2 glomerulus response result is reported as “strongest response; also recorded: responsive”. For the same compound, in assay [2] (setting [5]), the “AM2 response to lilac aldehyde/nonanal mixtures” value is listed as “increased AM2 activation” and the “LC2 response to lilac aldehyde/nonanal mixtures” value was “suppressed the response of LC2 to nonanal”. For the same compound, the “AM2 glomerulus response to orchid mixtures” value in assay [2] (mixtures with lilac aldehyde scaled to other Platanthera species, compared with P. obtusata, Kruskal-Wallis p<0.05) is “significant increase in AM2 responses”. Besides, the “LC2 glomerulus response to orchid mixtures” value in assay [2] (mixtures with lilac aldehyde scaled to other Platanthera species, nonanal as in the P. obtusata mixture, Kruskal-Wallis p<0.05) is “significant suppression of LC2 response”.
With `C=C1C2CCC(C2)C1(C)C` (stereo not drawn) [camphene], the “antennal responses (GC-EAD)” value in assay [1] (peaks of the P. obtusata scent) is given as “evoked antennal responses”.
With `CCCCCCCCO` [1-octanol], the LC2 glomerulus response result in assay [3] and in assay [2] was “strongest response” throughout.
As to `CCN(CC)C(=O)c1cccc(C)c1` [DEET, N,N-diethyl-meta-toluamide, reference compound], in assay [2], the “AM2 response with increasing dose” value is on record as “significant increases in response with increasing dose” and the AM2 glomerulus response entry is reported as “responsive”.
Regarding `CC1CCCC2(C)CCCCC12O` (stereo not drawn) [geosmin, reference compound], the PD3 glomerulus response result in assay [2] (setting [6]) is given as “responsive”.
Regarding `C=CC(=C)CCC=C(C)C` [β-myrcene], the “antennal responses (GC-EAD)” value in assay [1] (setting [4]) is “all responded”.
For `C=C1CCC2CC1C2(C)C` (stereo not drawn) [β-pinene], the “antennal responses (GC-EAD)” value in assay [1] (peaks of the P. obtusata scent) is reported as “evoked antennal responses”.
For the compound `CC1=CCC2CC1C2(C)C` (stereo not drawn) [α-pinene], the “antennal responses (GC-EAD)” value in assay [1] (peaks of the P. obtusata scent) is “evoked antennal responses”.
In the case of picrotoxin [reference compound], in assay [2], the “effect of GABA-receptor antagonists on AM2 response to the P. obtusata scent” value is reported as “the effect of nonanal was blocked”; the “effect of GABA-receptor antagonists on LC2 and AM2 responses to the P. stricta scent” value was “blocked the symmetrical inhibition by nonanal and lilac aldehyde”.
With `O=C=O` [CO2, reference compound], the MD2 glomerulus response entry in assay [2] (setting [6]) was “responsive”.
With `C=CC(C)(O)CCC=C(C)C` (racemic) [linalool], in assay [1] (setting [4]), the “antennal responses (GC-EAD)” value is given as “all responded”.
